Where two headings read alike, the source gives them in different places.
Legend:
[1] = molecular target: T1, mA3AR (Mus musculus, UniProt Q61618); experiment: Radioligand binding, membranes of HEK293 cells stably expressing mA3AR; settings: species m; inhibition of binding at 10 μM
T1 construct: expressed in transfected cells
T1 sequence (Q61618 1-319): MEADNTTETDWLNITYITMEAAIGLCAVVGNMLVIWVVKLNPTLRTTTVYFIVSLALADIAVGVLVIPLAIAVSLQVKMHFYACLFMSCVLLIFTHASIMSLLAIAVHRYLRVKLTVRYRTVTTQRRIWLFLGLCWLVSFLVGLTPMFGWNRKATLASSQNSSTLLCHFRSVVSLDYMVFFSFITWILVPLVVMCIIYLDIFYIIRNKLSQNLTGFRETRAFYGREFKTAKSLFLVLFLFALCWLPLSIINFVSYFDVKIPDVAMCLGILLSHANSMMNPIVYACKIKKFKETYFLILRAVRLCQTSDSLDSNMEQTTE

[2] = molecular target: T2, hA3AR (Homo sapiens, UniProt P0DMS8); experiment: cAMP assay, inhibition of forskolin-stimulated cAMP in hA3AR-transfected CHO cells; format: cell-based; settings: species h; percentage of maximal effect of 5′-N-ethylcarboxamidoadenosine 43, each at 10 μM
T2 construct: expressed in transfected cells
T2 sequence (P0DMS8 1-318): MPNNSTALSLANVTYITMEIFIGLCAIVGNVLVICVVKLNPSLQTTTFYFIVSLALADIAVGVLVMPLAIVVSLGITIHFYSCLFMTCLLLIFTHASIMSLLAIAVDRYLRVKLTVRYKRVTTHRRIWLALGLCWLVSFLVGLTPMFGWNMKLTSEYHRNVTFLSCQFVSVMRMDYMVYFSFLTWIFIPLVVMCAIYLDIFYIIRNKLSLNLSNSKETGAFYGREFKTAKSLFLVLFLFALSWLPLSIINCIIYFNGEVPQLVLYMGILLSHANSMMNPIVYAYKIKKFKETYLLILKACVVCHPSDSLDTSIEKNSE

[3] = molecular target: T3, hA1AR (Homo sapiens, UniProt P30542); settings: species h; inhibition of binding at 10 μM; tested in ref 26; cited from earlier work
T3 construct: expressed in transfected cells
T3 sequence (P30542 1-326): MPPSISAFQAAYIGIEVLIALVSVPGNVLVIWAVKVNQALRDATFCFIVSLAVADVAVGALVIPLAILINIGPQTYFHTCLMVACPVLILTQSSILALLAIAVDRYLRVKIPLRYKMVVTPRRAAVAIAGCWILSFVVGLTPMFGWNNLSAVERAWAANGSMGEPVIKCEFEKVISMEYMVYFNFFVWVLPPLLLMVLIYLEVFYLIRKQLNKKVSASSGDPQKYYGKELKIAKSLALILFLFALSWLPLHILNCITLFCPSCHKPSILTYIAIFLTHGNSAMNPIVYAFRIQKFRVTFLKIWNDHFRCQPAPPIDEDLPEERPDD

[4] = molecular target: T4, mA2AAR (Mus musculus, UniProt Q60613); experiment: Radioligand binding, membranes of HEK293 cells stably expressing mA2AAR; settings: species m; inhibition of binding at 10 μM
T4 construct: expressed in transfected cells
T4 sequence (Q60613 whole entry): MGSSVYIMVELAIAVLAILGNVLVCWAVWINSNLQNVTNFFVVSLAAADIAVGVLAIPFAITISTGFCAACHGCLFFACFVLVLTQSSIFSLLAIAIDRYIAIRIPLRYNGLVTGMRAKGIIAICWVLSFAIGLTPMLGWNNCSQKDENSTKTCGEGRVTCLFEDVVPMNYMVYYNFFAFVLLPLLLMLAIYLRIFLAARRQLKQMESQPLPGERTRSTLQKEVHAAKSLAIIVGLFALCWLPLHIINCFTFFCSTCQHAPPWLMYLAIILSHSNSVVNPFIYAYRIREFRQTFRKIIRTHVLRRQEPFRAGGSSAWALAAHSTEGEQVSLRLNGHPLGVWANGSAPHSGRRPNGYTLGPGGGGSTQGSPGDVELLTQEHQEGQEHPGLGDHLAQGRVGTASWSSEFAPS

[5] = molecular target: T5, hA2AAR (Homo sapiens, UniProt P29274); settings: species h; inhibition of binding at 10 μM; tested in ref 26; cited from earlier work
T5 construct: expressed in transfected cells
T5 sequence (P29274 whole entry): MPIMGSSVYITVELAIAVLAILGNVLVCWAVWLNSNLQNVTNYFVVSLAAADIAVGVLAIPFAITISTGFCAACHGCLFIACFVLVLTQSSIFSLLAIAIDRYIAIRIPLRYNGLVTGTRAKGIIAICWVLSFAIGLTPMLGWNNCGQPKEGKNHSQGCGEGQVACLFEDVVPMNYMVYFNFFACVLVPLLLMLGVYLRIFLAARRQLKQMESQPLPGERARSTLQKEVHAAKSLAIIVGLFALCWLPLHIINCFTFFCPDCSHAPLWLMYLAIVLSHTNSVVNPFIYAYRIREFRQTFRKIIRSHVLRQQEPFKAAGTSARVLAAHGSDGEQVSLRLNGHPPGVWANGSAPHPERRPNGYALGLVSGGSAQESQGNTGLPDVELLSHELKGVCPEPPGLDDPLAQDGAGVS

[6] = molecular target: T6, mA1AR (Mus musculus, UniProt Q60612); experiment: Radioligand binding, membranes of HEK293 cells stably expressing mA1AR; settings: species m; inhibition of binding at 10 μM
T6 construct: expressed in transfected cells
T6 sequence (Q60612 1-326): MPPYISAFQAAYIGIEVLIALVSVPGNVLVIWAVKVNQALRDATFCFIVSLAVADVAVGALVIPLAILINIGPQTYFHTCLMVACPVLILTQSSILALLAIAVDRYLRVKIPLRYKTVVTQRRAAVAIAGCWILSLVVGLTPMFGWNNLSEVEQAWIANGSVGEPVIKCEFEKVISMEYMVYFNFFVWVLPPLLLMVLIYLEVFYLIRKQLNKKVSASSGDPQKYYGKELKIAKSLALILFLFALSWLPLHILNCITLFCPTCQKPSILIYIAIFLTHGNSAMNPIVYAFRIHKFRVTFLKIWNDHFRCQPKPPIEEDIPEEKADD

[7] = Oxaliplatin-induced mechano-hypersensitivity (paw withdrawal threshold, von Frey); format: in vivo, rat; settings: oxaliplatin 5 days, 10 mg/kg cumulative dose
Description: Mean±SEM, n=6/group, ANOVA with Bonferroni comparisons. *P<0.05 vs. day 0; #P<0.05 vs. vehicle &†P<0.05 vs. Oxaliplatin.

[8] = system: intraepidermal nerve fibers (IENFs); experiment: Incidence of intraepidermal nerve fibers (IENFs) in chemotherapy-treated rats; settings: chemotherapeutic alone; p<0.05 vs. Naive
[9] = system: intraepidermal nerve fibers (IENFs); settings: rat, in vivo
[10] = molecular target: T5, hA2AAR; experiment: Radioligand binding, membranes of HEK293 cells stably expressing hA2AAR; settings: species h; inhibition of binding at 10 μM
[11] = molecular target: T1, mA3AR; experiment: cAMP assay, inhibition of forskolin-stimulated cAMP in mAR-transfected HEK cells; format: cell-based; settings: species m; percentage of maximal effect of 1a, from concentration-effect curves
[12] = molecular target: T3, hA1AR; experiment: Radioligand binding, membranes of CHO cells stably expressing hA1AR; settings: species h; inhibition of binding at 10 μM
[13] = system: PNSA mitochondria (saphenous nerve explants); experiment: ATP production in saphenous nerve explants after direct drug application; design: species or system rat; settings: 1 μM
Description: FIG. 14. […] Mean±SEM, n=6/group *P=0.019 vs, t-test
ATP assays. Saphenous nerves were harvested from rats 25 days after the initiation of chemotherapy treatments, then minced & teased apart as previously described. Saphenous nerve explants were transferred to MiR05 respiratory buffer & baseline ATP samples were taken after 5 min or after 15 min treatment with MRS5980 or vehicle. ADP (1 mM), glutamate (5 mM), succinate (5 mM), […] (5 mM) were added for 5 min & samples were taken for ATP. ATP levels were measured by a flash luciferin-luciferase assay (Promega Enliten ATP Assay; Promega, Madison, Wis.) & normalized to citrate synthase activity (Sigma, St Louis, Mo.) in explants homogenates.

[14] = system: isolated mouse liver mitochondria; experiment: Mitochondrial membrane potential (ΔΨm), TMRM flow cytometry of isolated mitochondria; format: biochemical; settings: n=1
Description: FIG. 12. MRS5980 reduces ADP-dependent dissipation of mitochondrial membrane potential (ΔΨm). ADP (1 mM) in the presence of Complex I and II substrates reduced the ΔΨm in isolated mouse liver mitochondrial (decreased TMRM signal). The degree of dissipation ΔΨm was lessened with MRS5980 (10 μM) treatment prior to adding ADP n=1, 10,000 mitochondria counted/sample.
FIG. 13. MRS5980 reduces calcium-dependent dissipation of mitochondrial ΔΨm. The addition of Ca^2+ (0.5-15 μM) to isolated mouse liver mitochondria reduced the mitochondria ΔΨm in (decreased TMRM signal). The mitochondrial ΔΨιη was sustained with MRS5980 (10 μM) treatment. n=1, 10,000 mitochondria counted/sample.
Mitochondrial membrane potential (ΔΨm). Mitochondria from mouse & rat liver were isolated for flow cytometry as previously described. Mitochondria (57 μg) were loaded with Mitotracker DeepRed FM (50 nM) & TMRM (100 nM). Mitochondria were then treated for 5 min with MRS5980 (10 μM) or vehicle then stimulated with ADP (1 mM) or Ca^2+ (0-15 μM) for 1 min. Mitochondria (10,000 counts) were detected using Mitotracker Deep Red FM (Abs/EM 644/665 nm) signal & the ΔΨm state determined by the dynamic median fluorescence signal of TMRM using a FACSCanto II (BD Biosciences).

| % efficacy [2] [%] | % inhibition A2A [4] | % inhibition A1 [6] | SMILES | % inhibition A1 [3] | % inhibition A2A [5] | further results |
| --- | --- | --- | --- | --- | --- | --- |
| 7.0 ± 5.2 | (11% ± 1%) | (47% ± 8%) | CCNc1nc(C#Cc2ccccc2Cl)nc2c1ncn2[C@H]1[C@H](O)[C@H](O)[C@@H]2C[C@@H]21 [Cmpd 10] | (25% ± 11%) | (17% ± 6%) | % inhibition A3 [1]: (50% ± 9%) |
|  |  |  | O=C1[O][Pt]2([NH][C@@H]3CCCC[C@H]3[NH]2)[O]C1=O [oxaliplatin, reference compound] |  |  | Mechano-hypersensitivity (Paw Withdrawal Threshold) [7]: produces mechano-hypersensitivity; Incidence of IENFs vs. Naive rats [8]: statistically significantly fewer IENFs |
| 3.5 ± 3.2 | (0%) |  | O[C@@H]1[C@H](O)[C@@H]2C[C@@H]2[C@H]1n1cnc2c(NCc3cccc(Cl)c3)nc(C#Cc3ccc(-c4ccccc4)cc3)nc21 [Cmpd 13] | (48% ± 4%) | (12% ± 7%) |  |
| 4.1 ± 1.2 | (13% ± 2%) | (39% ± 6%) | O[C@@H]1[C@H](O)[C@@H]2C[C@@H]2[C@H]1n1cnc2c(NCCc3ccccc3)nc(C#Cc3ccccc3)nc21 [Cmpd 14] | (30% ± 8%) | (22% ± 5%) |  |
| 0.8 ± 5.2 | (49% ± 2%) | (49% ± 6%) | CCNc1nc(C#Cc2ccccc2)nc2c1ncn2[C@H]1[C@H](O)[C@H](O)[C@@H]2C[C@@H]21 [Cmpd 9] | (36% ± 4%) | (42% ± 4%) |  |
| 101 ± 5.9 | (2% ± 1%) | (50% ± 5% | CNC(=O)[C@@]12C[C@@H]1[C@@H](n1cnc3c(NCc4cccc(Cl)c4)nc(C#Cc4ccccc4)nc31)[C@H](O)[C@@H]2O [Cmpd 5] | (20% ± 3%) | (27% ± 3%) |  |
| 13.8 ± 5.1 |  |  | O[C@@H]1[C@H](O)[C@@H]2C[C@@H]2[C@H]1n1cnc2c(NCc3cccc(Cl)c3)nc(C#Cc3ccccc3)nc21 [Cmpd 11] | (37% ± 4%) |  |  |
|  |  |  | CC(=O)O[C@H]1C(=O)[C@@]2(C)[C@H]([C@H](OC(=O)c3ccccc3)[C@]3(O)C[C@H](OC(=O)[C@H](O)[C@@H](NC(=O)c4ccccc4)c4ccccc4)C(C)=C1C3(C)C)[C@]1(OC(C)=O)CO[C@@H]1C[C@@H]2O [paclitaxel] |  |  | Incidence of IENFs vs. Naive rats [9]: statistically significantly fewer IENFs |
| 98.2 ± 6.7 | (1% ± 1%) | (15% ± 2%) | CNC(=O)C12CC1C(n1cnc3c(NCc4cccc(Cl)c4)nc(C#Cc4cccc(S(=O)(=O)O)c4)nc31)C(O)C2O (stereo not drawn) [Cmpd 7] |  |  | % inhibition A2A [10]: (7% ± 6%); % efficacy [11]: 89.3 ± 7.1%; % inhibition A1 [12]: (16% ± 3%) |
| 12.6 ± 4.0 | (8% ± 3%) |  | CNc1nc(C#Cc2ccccc2)nc2c1ncn2[C@H]1[C@H](O)[C@H](O)[C@@H]2C[C@@H]21 [Cmpd 8] | (18% ± 1%) | (18% ± 3%) |  |
| 2.6 ± 1.3 | (16% ± %) | (23% ± 1%) | O[C@@H]1[C@H](O)[C@@H]2C[C@@H]2[C@H]1n1cnc2c(NCC(c3ccccc3)c3ccccc3)nc(C#Cc3ccccc3Cl)nc21 [Cmpd 15] | (26% ± 4%) | (22% ± 2%) | % inhibition A3 [1]: (54 ± 3%) |
|  |  |  | CNC(=O)[C@@]12C[C@@H]1[C@@H](n1cnc3c(NC)nc(C#Cc4ccc(Cl)s4)nc31)[C@H](O)[C@@H]2O [MRS5980] |  |  | ATP production following stimulation of Complex I and II ([13]; explants from oxaliplatin-treated rats, day 25): reverses oxaliplatin-induced deficiencies in ATP production; ATP production following stimulation of Complex I and II ([13]; explants from vehicle-treated rats): modestly enhanced ATP production; ADP-dependent dissipation of mitochondrial membrane potential (ΔΨm) ([14]; 10 μM prior to ADP (1 mM)): lessened; Calcium-dependent dissipation of mitochondrial ΔΨm ([14]; 10 μM, Ca2+ 0.5-15 μM): sustained |
| 105.3 ± 9.8 | (1% ± 1%) | (25% ± 5%) | CNC(=O)C12CC1C(n1cnc3c(NCCc4ccccc4)nc(C#Cc4ccccc4)nc31)C(O)C2O (stereo not drawn) [Cmpd 17] |  |  | % inhibition A2A [10]: (32% ± 4%); % efficacy [11]: 114.6 ± 14.6%; % inhibition A1 [12]: (11% ± 3%) |
| 4.5 ± 4.9 |  |  | O[C@@H]1[C@H](O)[C@@H]2C[C@@H]2[C@H]1n1cnc2c(NCc3cccc(Cl)c3)nc(C#Cc3cccc(Cl)c3)nc21 [Cmpd 12] |  |  |  |
| 98.6 ± 5.7 | (14% ± 4%) |  | CNC(=O)C12CC1C(n1cnc3c(NCc4cccc(Cl)c4)nc(C#Cc4ccc(S(=O)(=O)O)cc4)nc31)C(O)C2O (stereo not drawn) [Cmpd 6] |  |  | % inhibition A2A [10]: (23% ± 3%); % efficacy [11]: 95.7 ± 19.1% |
| 7.2 | (1% ± 2%) | (18% ± 2%) | O=S(=O)(O)c1ccc(CCNc2nc(C#Cc3ccccc3)nc3c2ncn3[C@H]2[C@H](O)[C@H](O)[C@@H]3C[C@@H]32)cc1 [Cmpd 16] |  |  | % inhibition A2A [10]: (15% ± 3%); % inhibition A1 [12]: (10% ± 5%) |

Reference: patent US20190343860A1 (Saint Louis University, priority 2016, published 2019)
